How the values were obtained:
[1] = biological target: T1, RIG-I (Retinoic acid-inducible gene I) (Homo sapiens, UniProt O95786); experiment: RNA-dependent ATPase assay (ADP-Glo) at […]; type: biochemical; parameters: gene RIGI; recombinant RIG-I
T1 sequence (O95786 1-925): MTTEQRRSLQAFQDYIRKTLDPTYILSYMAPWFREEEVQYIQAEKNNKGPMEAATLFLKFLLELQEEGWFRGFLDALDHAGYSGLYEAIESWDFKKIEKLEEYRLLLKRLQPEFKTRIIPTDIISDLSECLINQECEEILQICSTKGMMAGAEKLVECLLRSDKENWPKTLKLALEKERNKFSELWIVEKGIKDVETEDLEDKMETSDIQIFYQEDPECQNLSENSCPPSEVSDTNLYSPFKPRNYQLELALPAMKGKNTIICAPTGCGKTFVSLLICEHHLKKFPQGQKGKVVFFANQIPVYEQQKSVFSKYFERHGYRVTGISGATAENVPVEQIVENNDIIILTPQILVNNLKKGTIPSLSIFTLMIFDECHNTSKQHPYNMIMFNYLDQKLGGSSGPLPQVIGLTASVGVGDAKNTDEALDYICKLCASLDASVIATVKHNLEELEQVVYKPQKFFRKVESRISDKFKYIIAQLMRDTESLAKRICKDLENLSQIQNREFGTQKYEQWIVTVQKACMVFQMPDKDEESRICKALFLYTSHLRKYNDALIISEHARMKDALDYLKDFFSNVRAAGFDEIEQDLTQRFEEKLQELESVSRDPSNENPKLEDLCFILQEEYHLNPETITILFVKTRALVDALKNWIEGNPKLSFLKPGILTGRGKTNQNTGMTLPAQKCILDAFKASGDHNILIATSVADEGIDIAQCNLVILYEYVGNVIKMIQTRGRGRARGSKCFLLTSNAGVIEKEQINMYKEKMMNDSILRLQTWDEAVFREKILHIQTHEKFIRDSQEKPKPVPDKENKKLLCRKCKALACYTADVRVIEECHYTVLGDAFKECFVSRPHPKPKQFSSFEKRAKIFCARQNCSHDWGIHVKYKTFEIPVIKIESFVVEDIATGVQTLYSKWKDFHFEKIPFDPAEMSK

[2] = biological target: T1, RIG-I (Retinoic acid-inducible gene I); experiment: RNA-dependent ATPase assay (ADP-Glo) with recombinant RIG-I; supported by native gel mobility shift; type: biochemical; parameters: gene RIGI; recombinant full length RIG-I

IC50 [2] [nM] | Structure (SMILES) | RNA-dependent ATPase assay (ADP-Glo) at 0.5 and 1 μM [1]
– | O=C(O[C@@H]1Cc2c(O)cc(O)cc2O[C@@H]1c1ccc(O)c(O)c1)c1cc(O)c(O)c(O)c1 [ECG, epicatechin gallate] | GCG, ECG, CG and TFDG inhibited the shR9-induced RIG-I ATPase activity to similar degree as EGCG
– | O=C(O[C@@H]1Cc2c(O)cc(O)cc2O[C@H]1c1cc(O)c(O)c(O)c1)c1cc(O)c(O)c(O)c1 [GCG, gallocatechin gallate] | GCG, ECG, CG and TFDG inhibited the shR9-induced RIG-I ATPase activity to similar degree as EGCG
< 500 | O=C(O[C@@H]1Cc2c(O)cc(O)cc2O[C@@H]1c1cc(O)c(O)c(O)c1)c1cc(O)c(O)c(O)c1 [EGCG, Epigallocatechin gallate] | –
